Test results from patent US12077503B2, “Substituted cyclic amides and their use as herbicides” (FMC CORPORATION, priority 2015, dated 2024).

Tests used:
Format in all cases: in vivo
[1] = system: Kochia (Kochia scoparia); assay: Test A preemergence; conditions: Bassia scoparia, pre-emergence, 240 h
Method in brief: (§1)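 Visual injury, scored on a 0–100 scale relative to untreated controls, was recorded about 10 d after application. Treatments were a preemergence soil spray over planted seeds or a postemergence spray on plants at the one- to two-leaf stage, 2 to 10 cm tall, all in loam soil–sand blend in the greenhouse.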

[2] = system: barnyardgrass (Echinochloa crus-galli); assay: Test A preemergence; conditions: Echinochloa crus-galli, pre-emergence, 240 h
Method in brief: as §1

[3] = system: giant foxtail (Setaria faberii); assay: Test A preemergence; conditions: Setaria faberi, pre-emergence, 240 h
Method in brief: as §1

[4] = system: pigweed (Amaranthus retroflexus); assay: Test A preemergence; conditions: Amaranthus retroflexus, pre-emergence, 240 h
[5] = system: ragweed (common ragweed, Ambrosia elatior); assay: Test A preemergence; conditions: Ambrosia artemisiifolia, pre-emergence, 240 h
Method in brief: as §1

[6] = system: ryegrass, Italian (Italian ryegrass, Lolium multiflorum); assay: Test A preemergence; conditions: Lolium multiflorum, pre-emergence, 240 h
Method in brief: as §1

[7] = system: Galium (catchweed bedstraw, Galium aparine); assay: Test A postemergence; conditions: Galium, post-emergence, 240 h, 125 g ai/ha, Postemergence; visual injury after approximately 10 d; 0 to 100 scale where 0 is no effect and 100 is complete control; read-out: Plant response rating, Galium
Method in brief: as §1

[8] = system: Kochia (Kochia scoparia); assay: Test A postemergence; conditions: Bassia scoparia, post-emergence, 240 h, 125 g ai/ha, Postemergence; visual injury after approximately 10 d; 0 to 100 scale where 0 is no effect and 100 is complete control; read-out: Plant response rating, Kochia
Method in brief: as §1

[9] = system: barnyardgrass (Echinochloa crus-galli); assay: Test A postemergence; conditions: Echinochloa crus-galli, post-emergence, 240 h, 125 g ai/ha, Postemergence; visual injury after approximately 10 d; 0 to 100 scale where 0 is no effect and 100 is complete control; read-out: Plant response rating, Barnyardgrass
Method in brief: as §1

[10] = system: blackgrass (Alopecurus myosuroides); assay: Test A postemergence; conditions: Alopecurus myosuroides, post-emergence, 240 h, 125 g ai/ha, Postemergence; visual injury after approximately 10 d; 0 to 100 scale where 0 is no effect and 100 is complete control; read-out: Plant response rating, Blackgrass
Method in brief: as §1

[11] = system: corn (Zea mays); assay: Test A postemergence; conditions: Zea mays, post-emergence, 240 h, 125 g ai/ha, Postemergence; visual injury after approximately 10 d; 0 to 100 scale where 0 is no effect and 100 is complete control
Method in brief: as §1

[12] = system: giant foxtail (Setaria faberii); assay: Test A postemergence; conditions: Setaria faberi, post-emergence, 240 h, 125 g ai/ha, Postemergence; visual injury after approximately 10 d; 0 to 100 scale where 0 is no effect and 100 is complete control; read-out: Plant response rating, Foxtail, Giant
Method in brief: as §1

[13] = system: pigweed (Amaranthus retroflexus); assay: Test A postemergence; conditions: Amaranthus retroflexus, post-emergence, 240 h, 125 g ai/ha, Postemergence; visual injury after approximately 10 d; 0 to 100 scale where 0 is no effect and 100 is complete control; read-out: Plant response rating, Pigweed
Method in brief: as §1

[14] = system: ragweed (common ragweed, Ambrosia elatior); assay: Test A postemergence; conditions: Ambrosia artemisiifolia, post-emergence, 240 h, 125 g ai/ha, Postemergence; visual injury after approximately 10 d; 0 to 100 scale where 0 is no effect and 100 is complete control; read-out: Plant response rating, Ragweed
Method in brief: as §1

[15] = system: ryegrass, Italian (Italian ryegrass, Lolium multiflorum); assay: Test A postemergence; conditions: Lolium multiflorum, post-emergence, 240 h, 125 g ai/ha, Postemergence; visual injury after approximately 10 d; 0 to 100 scale where 0 is no effect and 100 is complete control; read-out: Plant response rating, Ryegrass, Italian
Method in brief: as §1

[16] = system: wheat (Triticum aestivum); assay: Test A postemergence; conditions: Triticum aestivum, post-emergence, 240 h, 125 g ai/ha, Postemergence; visual injury after approximately 10 d; 0 to 100 scale where 0 is no effect and 100 is complete control; read-out: Plant response rating, Wheat
Method in brief: as §1

[17] = system: barnyardgrass (Echinochloa crus-galli); assay: Test B flooded paddy test; conditions: Echinochloa crus-galli, Flood, 250 g ai/ha; scale of 0 to 100 where 0 is no effect and 100 is complete control; read-out: Barnyardgrass plant response rating
Method in brief: (§2)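 Percent control, visually estimated after 13–15 d in the greenhouse on a 0–100 basis, compares treated pots with untreated ones; compound was put into paddy water 3 cm above the soil when plants had two leaves.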

[18] = system: ducksalad (Heteranthera limosa); assay: Test B flooded paddy test; conditions: Heteranthera limosa, Flood, 250 g ai/ha; scale of 0 to 100 where 0 is no effect and 100 is complete control; read-out: Ducksalad plant response rating
Method in brief: as §2

[19] = system: rice (Oryra sativa); assay: Test B flooded paddy test; conditions: Oryza sativa, Flood, 250 g ai/ha; scale of 0 to 100 where 0 is no effect and 100 is complete control; read-out: Rice plant response rating
Method in brief: as §2

[20] = system: sedge, umbrella (small-flower umbrella sedge, Cyperus difformis); assay: Test B flooded paddy test; conditions: Cyperus difformis, 250 g ai/ha, Flood; 0 to 100 scale where 0 is no effect and 100 is complete control; read-out: Sedge, Umbrella plant response rating
Method in brief: as §2

CN1C[C@H](c2cc(F)cc(F)c2)[C@@H](C(=O)Nc2ccc(O)cc2F)C1=O [Compound 985]
0%: pest or weed control at 125 g/ha ([1]; 125 g ai/ha, Preemergence, visual injury rating after approximately 10 d, read-out: Kochia plant response rating (0 to 100 scale, 0 is no effect, 100 is complete control)) | pest or weed control at 500 g/ha ([1]; 500 g ai/ha, preemergence, visual injury rating about 10 d after treatment, 0 to 100 scale (0 no effect, 100 complete control), read-out: Kochia plant response rating) | pest or weed control at 125 g/ha ([2]; 125 g ai/ha, Preemergence, visual injury rating after approximately 10 d, read-out: Barnyardgrass plant response rating (0 to 100 scale, 0 is no effect, 100 is complete control)) | pest or weed control at 500 g/ha ([2]; 500 g ai/ha, preemergence, visual injury rating about 10 d after treatment, 0 to 100 scale (0 no effect, 100 complete control), read-out: Barnyardgrass plant response rating) | pest or weed control at 125 g/ha ([3]; 125 g ai/ha, Preemergence, visual injury rating after approximately 10 d, read-out: Foxtail, Giant plant response rating (0 to 100 scale, 0 is no effect, 100 is complete control)) | pest or weed control at 500 g/ha ([3]; 500 g ai/ha, preemergence, visual injury rating about 10 d after treatment, 0 to 100 scale (0 no effect, 100 complete control), read-out: Foxtail, Giant plant response rating) | pest or weed control at 125 g/ha ([4]; 125 g ai/ha, Preemergence, visual injury rating after approximately 10 d, read-out: Pigweed plant response rating (0 to 100 scale, 0 is no effect, 100 is complete control)) | pest or weed control at 500 g/ha ([4]; 500 g ai/ha, preemergence, visual injury rating about 10 d after treatment, 0 to 100 scale (0 no effect, 100 complete control), read-out: Pigweed plant response rating) | pest or weed control at 125 g/ha ([5]; 125 g ai/ha, Preemergence, visual injury rating after approximately 10 d, read-out: Ragweed plant response rating (0 to 100 scale, 0 is no effect, 100 is complete control)) | pest or weed control at 500 g/ha ([5]; 500 g ai/ha, preemergence, visual injury rating about 10 d after treatment, 0 to 100 scale (0 no effect, 100 complete control), read-out: Ragweed plant response rating) | pest or weed control at 125 g/ha ([6]; 125 g ai/ha, Preemergence, visual injury rating after approximately 10 d, read-out: Ryegrass, Italian plant response rating (0 to 100 scale, 0 is no effect, 100 is complete control)) | pest or weed control at 500 g/ha ([6]; 500 g ai/ha, preemergence, visual injury rating about 10 d after treatment, 0 to 100 scale (0 no effect, 100 complete control), read-out: Ryegrass, Italian plant response rating) | pest or weed control at 125 g/ha [7] | pest or weed control at 125 g/ha [8] | pest or weed control at 125 g/ha [9] | pest or weed control at 125 g/ha [10] | Corn plant response rating (crop injury, 0 = no effect, 100 = complete kill) at 125 g/ha [11] | pest or weed control at 125 g/ha [12] | pest or weed control at 125 g/ha [13] | pest or weed control at 125 g/ha [14] | pest or weed control at 125 g/ha [15] | plant injury at 125 g/ha [16] | pest or weed control at 250 g/ha [17] | pest or weed control at 250 g/ha [19] | pest or weed control at 250 g/ha [20]
40%: pest or weed control at 250 g/ha [18]
